Results on 2 compounds are retold here after ChEMBL document CHEMBL1145229, “Identified a morpholinyl-4-piperidinylacetic acid derivative as a potent oral active VLA-4 antagonist” (Bioorg Med Chem Lett, 2005).

Data set [1] is described as follows: in vivo. The note with it: rat.
Description: Half life in lambda2 phase in rat
A short description of data set [2]: in vivo. The note with it: Sprague-Dawley, rat, po, 1.2 mg/kg.
Description: Percent bioavailability in sprague-dawley rat at a dosage(inta venous 1.2 mg/kg, oral 5 mg/kg )
Data set [3] in a line: in vivo. As to conditions: rat. This is another data set of the same source.
Description: Half life in lambda1 phase in rat
The nature of data set [4]: in vivo. The note with it: Sprague-Dawley, rat, iv, 1.2 mg/kg.
Description: Clearance in sprague dawley rat at 1.2 mg/kg intra venous dosage

`Cc1ccccc1NC(=O)Nc1ccc(CC(=O)N2CCCC2C(=O)NCCCCC(=O)O)cc1` (stereo not drawn): the results for the half-life in “in vivo [1]” and in “in vivo [3]” were 9.1 min and 2.8 min, respectively. Moreover, in the data set “in vivo [2]”, the bioavailability was < 1%. Further, the clearance in “in vivo [4]” is 75.1 mL/min/kg.

Consider `Cc1ccccc1NC(=O)Nc1ccc(CC(=O)N2CCCC2C(=O)N2CCC(CC(=O)O)CC2)cc1` (stereo not drawn), for which the values for the half-life in the data set “in vivo [1]” and in “in vivo [3]” were 20.2 min and 5.8 min, respectively. Besides, in the data set “in vivo [2]”, the bioavailability is < 1%. Also, in “in vivo [4]”, the clearance is 41.3 mL/min/kg.
